“Also recorded” adds a separate entry of the source.
Experiments:
Type in all cases: cell-based
[1] = molecular target: T1, estrogen receptor ERα (Homo sapiens, UniProt P03372); experiment: human ERα reporter assay (ERE-luc, Indigo Bioscience #IB00421-48P); conditions: for activity of ERα: Test Example 3, same manner as Test Example 1, FIG. 16; for increase of the activity of the estrogen receptor ERα: Test Example 1, 10 μg/mL for 24 hours, FIG. 11, FIG. 14
T1 sequence (P03372 1-595): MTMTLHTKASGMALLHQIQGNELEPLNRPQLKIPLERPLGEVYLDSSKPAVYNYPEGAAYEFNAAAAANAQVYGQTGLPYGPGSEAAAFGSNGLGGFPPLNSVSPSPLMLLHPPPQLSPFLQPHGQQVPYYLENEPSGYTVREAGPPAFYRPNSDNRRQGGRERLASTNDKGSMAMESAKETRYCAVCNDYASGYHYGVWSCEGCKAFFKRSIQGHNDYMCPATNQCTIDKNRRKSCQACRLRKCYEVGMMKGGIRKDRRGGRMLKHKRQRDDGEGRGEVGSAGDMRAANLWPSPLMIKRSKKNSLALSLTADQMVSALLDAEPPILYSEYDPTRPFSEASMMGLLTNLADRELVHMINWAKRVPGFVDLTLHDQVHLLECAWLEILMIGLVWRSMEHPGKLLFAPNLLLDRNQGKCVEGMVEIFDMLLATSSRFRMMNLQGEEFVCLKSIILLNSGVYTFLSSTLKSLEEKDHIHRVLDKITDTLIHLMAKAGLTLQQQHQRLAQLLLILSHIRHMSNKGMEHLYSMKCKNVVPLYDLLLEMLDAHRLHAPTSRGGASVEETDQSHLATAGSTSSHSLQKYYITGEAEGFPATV
Description: (§1) After treating each of the novel ginsenoside GS #10 according to an exemplary embodiment of the present disclosure and other ginsenosides GS #01 to GS #06 isolated from the ginseng seed extract with a human ERα/β reporter assay panel (#IB00421-48P; Indigo Bioscience) at a concentration of 10 μg/mL for 24 hours, the increase of the activity of the estrogen receptors ERα and ERβ was analyzed. The #IB00421-48P kit comprises cells in which ERα and ERβ are overexpressed, respectively, and comprises the ERE-luc reporter gene. If the activity of the ER is increased by treating with the example or a comparative example, ERα and ERβ bind to ERE, thereby inducing the expression of luciferase. Therefore, the activity of ERα and ERβ can be measured by measuring the light intensity of the cells. As the comparative example, a methanol extract of ginseng seed (seeds of Panax ginseng) used for the isolation of the ginsenosides in Example 1 was used.
(§2) It is reported that, although the increased activity of the estrogen receptors ERα and ERβ can lead to alleviation of menopausal symptoms, ERs are overexpressed in more than 70% of breast cancer cells, mainly due to increased ERα (ESR1) (see Deroo B J et al., J Clin Invest 116:561 (2006)).
(§3) The effect of preventing or improving menopausal symptoms of the novel ginsenoside […] according to an exemplary embodiment of the present disclosure was compared with that of ginsenosides Rg1, Rg3 and Rb1 (purchased from Sigma), which are red ginseng marker compounds, as comparative examples. Ginsenoside Rg3 has the following chemical structure. The experiment was performed in the same manner as in Test Example 1.

[2] = system: MCF-7 breast cancer cells; experiment: growth of MCF-7 breast cancer cells (cell counting); conditions: 10 μg/mL for 48 hours; number of cells counted; FIG. 15
[3] = molecular target: estrogen receptor ERβ (Homo sapiens, UniProt Q92731); experiment: human ERβ reporter assay (ERE-luc, Indigo Bioscience #IB00421-48P); conditions: for activity of ERβ: same manner as Test Example 1
Description: as §1, §2, §3

[4] = system: SH-SY5Y cells; experiment: cytotoxicity, cell counting kit (CCK-8); conditions: 0.1, 1, 5, 10, 20 and 50 μM, FIG. 18
Description: Cell growth in the presence of the novel ginsenoside GS #10 according to an exemplary embodiment of the present disclosure was evaluated using a cell counting kit (CCK-8) in order to exclude the possibility that the ginsenoside may affect the effect of preventing or improving menopausal symptoms through cytotoxic activity. The experimental method is as follows.
10 μL of a CCK-8 reagent was added to SH-SY5Y cells (Dojindo, Md., USA) in a 96-well plate and left at 37° C. for 2 hours. Then, absorbance was measured at 450 nm. Cell viability was represented as the percentage (%) of the absolute optical density of each sample relative to an untreated sample. The concentration of the novel ginsenoside GS #10 according to an exemplary embodiment of the present disclosure in the medium in which the cells were cultured was 0.1, 1, 5, 10, 20 and 50 μM, respectively.

Chain of estrogen receptor ERβ (Q92731 whole entry): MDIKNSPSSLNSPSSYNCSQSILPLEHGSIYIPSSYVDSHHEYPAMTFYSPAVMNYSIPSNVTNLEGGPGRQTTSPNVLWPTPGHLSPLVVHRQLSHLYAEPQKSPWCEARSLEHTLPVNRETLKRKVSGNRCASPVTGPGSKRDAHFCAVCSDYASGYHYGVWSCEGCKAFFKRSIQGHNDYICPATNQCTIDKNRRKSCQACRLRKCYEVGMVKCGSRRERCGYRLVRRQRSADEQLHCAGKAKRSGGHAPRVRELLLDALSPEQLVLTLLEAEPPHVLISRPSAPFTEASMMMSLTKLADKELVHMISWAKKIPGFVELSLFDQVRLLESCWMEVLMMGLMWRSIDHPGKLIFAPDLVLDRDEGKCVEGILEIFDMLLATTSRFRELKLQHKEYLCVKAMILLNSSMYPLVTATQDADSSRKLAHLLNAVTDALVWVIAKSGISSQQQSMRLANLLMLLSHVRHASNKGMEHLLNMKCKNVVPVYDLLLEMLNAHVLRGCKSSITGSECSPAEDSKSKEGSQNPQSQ

| Structure (SMILES) | activity of ERα [1] | increase of the activity of the estrogen receptor ERα [1] | growth of MCF-7 breast cancer cells (side effect of promoting cancer cell growth) [2] | activity of ERβ ([3]; Test Example 3, FIG. 17) | also measured |
| --- | --- | --- | --- | --- | --- |
| CC(C)=CCC[C@](C)(O[C@@H]1O[C@H](CO)[C@@H](O)[C@H](O)[C@H]1O)[C@H]1CC[C@]2(C)[C@@H]1[C@H](O)C[C@@H]1[C@@]3(C)CC[C@H](O)C(C)(C)[C@@H]3[C@@H](O[C@@H]3O[C@H](CO)[C@@H](O)[C@H](O)[C@H]3O)C[C@]12C [GS #01, ginsenoside Rg1] | activated the estrogen receptors to some extent | – | – | – | – |
| CC(C)=CCC[C@](C)(O[C@@H]1O[C@H](CO)[C@@H](O)[C@H](O)[C@H]1O)[C@H]1CC[C@]2(C)[C@@H]1[C@H](O)C[C@@H]1[C@@]3(C)CC[C@H](O)C(C)(C)[C@@H]3[C@@H](O[C@@H]3O[C@H](CO)[C@@H](O)[C@H](O)[C@H]3O[C@@H]3O[C@@H](C)[C@H](O)[C@@H](O)[C@H]3O)C[C@]12C [GS #03, ginsenoside Re] | – | slightly increased the activity of ERα | – | – | – |
| C[C@]12CC[C@@H]3c4ccc(O)cc4CC[C@H]3[C@@H]1CC[C@@H]2O [17β-estradiol, 17β-Estradiol, reference compound] | – | – | promoted the growth of the breast cancer cells | – | – |
| CC(C)=CCC[C@](C)(O)[C@H]1CC[C@]2(C)[C@@H]1[C@H](O)C[C@@H]1[C@@]3(C)CC[C@H](O[C@@H]4O[C@H](CO)[C@@H](O)[C@H](O)[C@H]4O[C@@H]4O[C@H](CO)[C@@H](O)[C@H](O)[C@H]4O)C(C)(C)[C@@H]3CC[C@]12C [Rg3, Ginsenoside Rg3, reference compound] | activated the estrogen receptors to some extent | – | – | activated the estrogen receptors to some extent | – |
| CC(C)=CCC[C@](C)(O[C@@H]1O[C@H](CO[C@@H]2O[C@H](CO)[C@@H](O)[C@H](O)[C@H]2O)[C@@H](O)[C@H](O)[C@H]1O)[C@H]1CC[C@]2(C)[C@@H]1[C@H](O)C[C@@H]1[C@@]3(C)CC[C@H](O[C@@H]4O[C@H](CO)[C@@H](O)[C@H](O)[C@H]4O[C@@H]4O[C@H](CO)[C@@H](O)[C@H](O)[C@H]4O)C(C)(C)[C@@H]3CC[C@]12C [GS #05, ginsenoside Rb1] | activated the estrogen receptors to some extent | slightly increased the activity of ERα | – | – | – |
| CC1(C)C(=O)CC[C@@]2(C)C1[C@@H](O[C@H]1OC(CO)[C@H](O)C(O)C1O[C@H]1OC(CO)[C@H](O)C(O)C1O)C[C@]1(C)C2C[C@@H](O)C2C([C@]3(C)CC[C@H](C(C)(C)O)O3)CC[C@]21C (stereo partly drawn) [GS #10, (20S,24R)-6-O-β-D-glucopyranosyl(1→2)-β-D-glucopyranoside-dammar-3-one-20,24-epoxy-6a,12b,25-triol] | not higher than Rg1 and Rb1 | slightly increased the activity of ERα; also recorded: had an effect of increasing the activity | did not show such a side effect | 136% | increase of the activity of the estrogen receptor ERβ ([3]; Test Example 1, 10 μg/mL for 24 hours, FIG. 12, FIG. 14): activated ERβ; also recorded: had an effect of increasing the activity; activity ratio of ERβ to ERα compared with red ginseng marker compounds ([3]; Test Example 3, FIG. 16 and FIG. 17): higher than the ginsenosides Rb1, Rg1 and Rg3; activity of ERβ as compared to the ginsenosides Rg1 and Rb1 ([3]; Test Example 3, FIG. 17): at least 3 times; cytotoxicity (cell viability) [4]: did not exhibit cytotoxicity up to 50 μM |

Source: US11633413B2, “Composition for preventing or improving menopausal symptom comprising novel ginsenoside” (AMOREPACIFIC CORPORATION, priority 2019, dated 2023)
